This passage reports Kd results from ChEMBL document CHEMBL1150977, “A quantitative analysis of kinase inhibitor selectivity” (Nat Biotechnol, 2008).

Experiment [1] has as its target T1, Protein kinase C epsilon type (Homo sapiens, UniProt Q02156).
T1 sequence (Q02156 whole entry): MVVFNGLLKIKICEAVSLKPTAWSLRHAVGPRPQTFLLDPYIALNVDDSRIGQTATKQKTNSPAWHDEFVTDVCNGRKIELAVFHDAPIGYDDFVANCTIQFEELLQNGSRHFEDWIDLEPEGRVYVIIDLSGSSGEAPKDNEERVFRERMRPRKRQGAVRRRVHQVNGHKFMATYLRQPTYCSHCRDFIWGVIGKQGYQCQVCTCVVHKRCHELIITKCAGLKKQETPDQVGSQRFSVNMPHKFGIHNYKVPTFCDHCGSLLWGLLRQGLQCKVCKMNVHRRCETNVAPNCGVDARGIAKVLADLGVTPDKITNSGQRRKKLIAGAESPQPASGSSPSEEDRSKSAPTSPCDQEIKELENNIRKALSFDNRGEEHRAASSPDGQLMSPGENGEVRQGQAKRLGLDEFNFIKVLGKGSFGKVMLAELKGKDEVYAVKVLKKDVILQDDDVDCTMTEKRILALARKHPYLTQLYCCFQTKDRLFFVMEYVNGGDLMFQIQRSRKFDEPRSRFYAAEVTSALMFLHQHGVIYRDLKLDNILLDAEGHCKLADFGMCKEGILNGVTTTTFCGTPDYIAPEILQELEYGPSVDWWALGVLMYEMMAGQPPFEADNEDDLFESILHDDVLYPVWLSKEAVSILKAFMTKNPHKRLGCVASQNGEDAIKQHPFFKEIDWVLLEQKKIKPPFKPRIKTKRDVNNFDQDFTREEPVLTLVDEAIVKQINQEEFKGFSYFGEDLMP

In experiment [2] the target is T2, Serine/threonine-protein kinase TNNI3K (Homo sapiens, UniProt Q59H18).
T2 sequence (Q59H18 whole entry): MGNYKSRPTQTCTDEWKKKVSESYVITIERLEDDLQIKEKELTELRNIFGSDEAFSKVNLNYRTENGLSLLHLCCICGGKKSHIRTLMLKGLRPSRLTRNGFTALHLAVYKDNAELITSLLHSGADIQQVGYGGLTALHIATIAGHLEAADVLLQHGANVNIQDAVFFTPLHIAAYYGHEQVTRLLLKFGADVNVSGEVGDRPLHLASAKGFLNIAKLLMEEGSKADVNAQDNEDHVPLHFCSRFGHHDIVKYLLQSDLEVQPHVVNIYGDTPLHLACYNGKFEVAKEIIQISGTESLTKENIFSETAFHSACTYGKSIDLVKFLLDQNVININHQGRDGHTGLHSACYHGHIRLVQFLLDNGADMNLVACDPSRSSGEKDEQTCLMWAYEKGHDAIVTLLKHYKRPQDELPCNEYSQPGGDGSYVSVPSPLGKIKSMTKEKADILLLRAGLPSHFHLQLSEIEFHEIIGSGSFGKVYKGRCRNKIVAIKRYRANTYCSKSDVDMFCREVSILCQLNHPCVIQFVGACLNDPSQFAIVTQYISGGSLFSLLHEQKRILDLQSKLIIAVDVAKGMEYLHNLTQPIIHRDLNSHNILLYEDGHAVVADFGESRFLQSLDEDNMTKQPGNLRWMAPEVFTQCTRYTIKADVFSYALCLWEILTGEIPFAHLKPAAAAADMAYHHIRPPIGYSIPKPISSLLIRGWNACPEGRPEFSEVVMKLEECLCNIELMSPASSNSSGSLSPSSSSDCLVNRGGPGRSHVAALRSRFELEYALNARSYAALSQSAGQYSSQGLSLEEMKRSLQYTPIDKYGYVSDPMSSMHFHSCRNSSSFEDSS

The target of a further experiment is T3, Ephrin type-B receptor 2 (Homo sapiens, UniProt P29323).
T3 sequence (P29323 whole entry): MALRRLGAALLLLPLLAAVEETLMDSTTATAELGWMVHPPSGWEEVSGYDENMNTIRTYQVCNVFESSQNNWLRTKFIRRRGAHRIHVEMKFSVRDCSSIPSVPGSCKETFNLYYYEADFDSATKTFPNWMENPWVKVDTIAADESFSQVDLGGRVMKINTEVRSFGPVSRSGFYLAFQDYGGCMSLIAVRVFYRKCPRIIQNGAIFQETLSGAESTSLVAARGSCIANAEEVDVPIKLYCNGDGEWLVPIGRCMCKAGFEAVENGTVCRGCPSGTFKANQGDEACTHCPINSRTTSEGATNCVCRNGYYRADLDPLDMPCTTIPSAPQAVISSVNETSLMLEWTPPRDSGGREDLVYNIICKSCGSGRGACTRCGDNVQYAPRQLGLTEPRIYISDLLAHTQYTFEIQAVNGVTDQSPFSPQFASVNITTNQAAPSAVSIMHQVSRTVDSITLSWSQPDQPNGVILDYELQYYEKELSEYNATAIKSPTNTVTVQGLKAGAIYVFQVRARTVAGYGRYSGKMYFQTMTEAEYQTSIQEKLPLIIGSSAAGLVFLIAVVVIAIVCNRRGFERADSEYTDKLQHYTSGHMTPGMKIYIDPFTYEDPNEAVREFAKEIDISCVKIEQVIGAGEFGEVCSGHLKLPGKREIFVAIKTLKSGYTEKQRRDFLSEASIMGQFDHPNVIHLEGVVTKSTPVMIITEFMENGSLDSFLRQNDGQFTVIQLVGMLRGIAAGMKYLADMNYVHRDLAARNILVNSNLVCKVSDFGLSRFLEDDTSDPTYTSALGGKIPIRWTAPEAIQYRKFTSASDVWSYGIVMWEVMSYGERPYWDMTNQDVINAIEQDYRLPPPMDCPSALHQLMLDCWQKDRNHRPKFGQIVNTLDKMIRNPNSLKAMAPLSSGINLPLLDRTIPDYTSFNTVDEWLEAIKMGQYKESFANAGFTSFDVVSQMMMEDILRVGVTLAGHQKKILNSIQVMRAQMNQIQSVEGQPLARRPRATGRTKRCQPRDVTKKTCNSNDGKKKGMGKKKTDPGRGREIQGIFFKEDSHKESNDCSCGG

The target in experiment [3] is Mitogen-activated protein kinase 1 (Homo sapiens, UniProt P28482).
Sequence of Mitogen-activated protein kinase 1 (P28482 whole entry): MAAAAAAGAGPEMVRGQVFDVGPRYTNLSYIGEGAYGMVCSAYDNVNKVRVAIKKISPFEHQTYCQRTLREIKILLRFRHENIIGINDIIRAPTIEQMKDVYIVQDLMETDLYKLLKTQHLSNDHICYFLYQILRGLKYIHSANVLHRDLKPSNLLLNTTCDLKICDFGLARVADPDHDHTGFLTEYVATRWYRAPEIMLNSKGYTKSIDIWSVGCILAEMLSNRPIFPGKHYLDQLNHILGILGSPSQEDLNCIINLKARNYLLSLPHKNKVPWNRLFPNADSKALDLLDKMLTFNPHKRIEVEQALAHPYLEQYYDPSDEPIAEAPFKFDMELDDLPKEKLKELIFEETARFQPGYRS
Experiment [4] has as its target Serine/threonine-protein kinase pim-3 (Homo sapiens, UniProt Q86V86).
Experiment [5] deals with RAC-alpha serine/threonine-protein kinase (Homo sapiens, UniProt P31749).
Sequence of RAC-alpha serine/threonine-protein kinase (P31749 whole entry): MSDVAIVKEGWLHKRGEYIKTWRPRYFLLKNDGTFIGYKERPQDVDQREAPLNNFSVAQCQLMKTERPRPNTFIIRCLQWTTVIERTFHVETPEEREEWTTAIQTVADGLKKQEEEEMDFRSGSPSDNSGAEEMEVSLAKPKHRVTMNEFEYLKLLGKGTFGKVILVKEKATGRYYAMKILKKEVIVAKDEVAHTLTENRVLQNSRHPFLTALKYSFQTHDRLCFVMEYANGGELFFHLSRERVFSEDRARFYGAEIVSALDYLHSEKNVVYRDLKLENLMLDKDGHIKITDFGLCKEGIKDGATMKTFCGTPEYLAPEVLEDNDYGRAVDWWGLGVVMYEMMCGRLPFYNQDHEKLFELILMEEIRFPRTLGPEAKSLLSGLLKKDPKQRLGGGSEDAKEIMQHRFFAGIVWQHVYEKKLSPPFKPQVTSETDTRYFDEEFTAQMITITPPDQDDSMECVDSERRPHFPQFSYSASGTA
In experiment [6] the target is Serine/threonine-protein kinase B-raf (Homo sapiens, UniProt P15056, V600E).
Sequence of Serine/threonine-protein kinase B-raf (P15056 2-766 V600E limits assumed): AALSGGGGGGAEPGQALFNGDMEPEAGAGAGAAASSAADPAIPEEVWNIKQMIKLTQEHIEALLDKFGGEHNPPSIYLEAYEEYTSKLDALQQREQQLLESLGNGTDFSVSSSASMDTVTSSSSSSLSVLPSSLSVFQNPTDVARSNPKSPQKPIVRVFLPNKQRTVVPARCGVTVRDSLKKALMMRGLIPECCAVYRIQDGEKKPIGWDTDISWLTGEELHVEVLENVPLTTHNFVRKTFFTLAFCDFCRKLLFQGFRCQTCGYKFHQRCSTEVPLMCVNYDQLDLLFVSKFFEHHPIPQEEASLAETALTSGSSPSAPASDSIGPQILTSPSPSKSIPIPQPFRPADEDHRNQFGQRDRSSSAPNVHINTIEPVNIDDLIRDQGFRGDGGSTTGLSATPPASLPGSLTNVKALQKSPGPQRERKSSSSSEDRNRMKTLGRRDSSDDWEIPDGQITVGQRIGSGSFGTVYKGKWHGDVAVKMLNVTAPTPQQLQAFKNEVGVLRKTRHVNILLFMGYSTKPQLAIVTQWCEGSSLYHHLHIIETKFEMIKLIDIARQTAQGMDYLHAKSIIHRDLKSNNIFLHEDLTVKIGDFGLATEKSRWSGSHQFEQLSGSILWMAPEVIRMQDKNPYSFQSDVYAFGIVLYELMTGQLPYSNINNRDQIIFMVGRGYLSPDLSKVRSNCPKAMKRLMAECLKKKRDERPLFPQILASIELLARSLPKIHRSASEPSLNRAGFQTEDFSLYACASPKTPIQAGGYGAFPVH

On to `COCC(=O)NC/C=C/c1ccc2ncnc(Nc3ccc(Oc4ccc(C)nc4)c(C)c3)c2c1` [CP-724714], for which the Kd (in experiment [1]; in experiment [2]; on Ephrin type-B receptor 2; in experiment [3]; in experiment [4]; in experiment [5]) was above 10 µM each time.

For the compound `Nc1nc(Nc2ccc(S(N)(=O)=O)cc2)nn1C(=O)c1c(F)cccc1F` [JNJ-7706621], the Kd in experiment [1] was above 10 µM; in experiment [2], 1.4 µM; on Ephrin type-B receptor 2, above 10 µM; in experiment [4], above 10 µM; in experiment [5], above 10 µM; in experiment [6] it was above 10 µM.

As to `CCOc1cc2ncc(C#N)c(Nc3ccc(F)c(Cl)c3)c2cc1NC(=O)/C=C/CN(C)C` [PELITINIB], the Kd is above 10 µM in experiment [1]; 7.2 µM in experiment [2]; above 10 µM on Ephrin type-B receptor 2; above 10 µM in experiment [3]; above 10 µM in experiment [4]; above 10 µM in experiment [5]. Also, the Kd in experiment [6] is above 10 µM.

With `Oc1ccc(-c2nc(-c3ccncc3)c(-c3ccc(F)cc3)[nH]2)cc1` [SB-202190], the Kd (in experiment [1]; in experiment [2]; at Ephrin type-B receptor 2; in experiment [3]; in experiment [4]; in experiment [5]) was above 10 µM each time. Also, the affinity in experiment [6], expressed as Kd, was 0.62 µM.

With `NC(=O)c1ccc(-c2nc(-c3ccc4c(c3)OCO4)c(-c3ccccn3)[nH]2)cc1` [SB-431542], the Kd (in experiment [1]; in experiment [2]; on Ephrin type-B receptor 2; in experiment [3]; in experiment [4]; in experiment [5]) was above 10 µM throughout.
